Some test systems named below: MDA-MB-231 breast; SNB-75 CNS; SK-MEL-2 melanoma; ACHN renal; IGROV1 ovarian; SK-MEL-5 melanoma; BT-549 breast; SNB-19 CNS; COLO 205 colon; SF-268 CNS.
Common to all, as to assay: DTP human tumour cell line panel, 48 h

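Following 48 hours of exposure in 96-well plates, responses at five concentrations were used to interpolate endpoints linearly. GI50 = concentration required for 50% inhibition of growth. TGI denotes the concentration required for complete inhibition of growth.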

This passage reports GI50 and TGI results from PubChem BioAssay (NCI).

As a reminder, the GI50 is the concentration at which growth is held to half of that of the control. What is called TGI is the concentration giving total growth inhibition. A lower TGI goes with greater sensitivity of the cells.

In the case of `O=C(O)Cn1c2c(c3c(O)cccc31)C(=O)c1ccccc1-2`, the GI50 with MDA-MB-231 breast, in the assay with SNB-75 CNS, in the assay with SK-MEL-2 melanoma, in the assay on ACHN renal, in the assay on IGROV1 ovarian and with SK-MEL-5 melanoma was above 100 µM each time. The GI50 was 12.8 µM with BT-549 breast, above 100 µM in the assay with SNB-19 CNS, above 100 µM in the assay on COLO 205 colon and above 100 µM in the assay on SF-268 CNS. The TGI in the assay on MDA-MB-231 breast, with SNB-75 CNS, with SK-MEL-2 melanoma, with ACHN renal, with IGROV1 ovarian and in the assay on SK-MEL-5 melanoma was above 100 µM each time. Further, the TGI in the assay on BT-549 breast, in the assay on SNB-19 CNS, with COLO 205 colon and in the assay with SF-268 CNS was above 100 µM throughout.
For the molecule `c1ccc(C2=Nc3cccc4cccc(c34)N2)cc1`, the TGI in the assay on MDA-MB-231 breast is 54.7 µM; in the assay on SNB-75 CNS it was above 100 µM; in the assay with SK-MEL-2 melanoma, above 93.1 µM; in the assay on ACHN renal, 62.5 µM; with IGROV1 ovarian, above 94.5 µM; in the assay on SK-MEL-5 melanoma it was above 100 µM. In addition, the TGI in the assay on BT-549 breast was above 85.7 µM; in the assay on SNB-19 CNS, above 100 µM; with COLO 205 colon it was 40.9 µM; with SF-268 CNS, above 90.6 µM.
Turning to `COc1cccc2cc(C(=O)Nc3ccccn3)c(=N)oc12`, the total growth inhibition concentration (TGI) in the assay with MDA-MB-231 breast, in the assay with SNB-75 CNS, in the assay on SK-MEL-2 melanoma, in the assay with ACHN renal, in the assay on IGROV1 ovarian and in the assay with SK-MEL-5 melanoma was above 100 µM throughout. Further, the TGI with BT-549 breast, in the assay with SNB-19 CNS, in the assay with COLO 205 colon and with SF-268 CNS was above 100 µM each time.
Consider `COc1ccc2c(c1)C(N)=C(Cc1ccncc1)C2=O`, for which the TGI in the assay on MDA-MB-231 breast, with SNB-75 CNS, in the assay with SK-MEL-2 melanoma, in the assay on ACHN renal, in the assay on IGROV1 ovarian and with SK-MEL-5 melanoma was above 100 µM each time. Besides, the TGI in the assay with BT-549 breast, in the assay with SNB-19 CNS, with COLO 205 colon and with SF-268 CNS was above 100 µM throughout.
Take `CC[C@@H](/C=C\CCC1(C[C@@H](N)CCC=C(C)C)OCCO1)O[Si](C(C)C)(C(C)C)C(C)C`: the TGI in the assay on MDA-MB-231 breast is 33.6 µM; in the assay with SNB-75 CNS, 34.6 µM; in the assay with SK-MEL-2 melanoma it was 31.7 µM; with ACHN renal, 32 µM; with IGROV1 ovarian, 30.6 µM; with SK-MEL-5 melanoma it was 32.7 µM. Besides, the concentration for total growth inhibition (TGI) is 35 µM with BT-549 breast, 32.8 µM in the assay on SNB-19 CNS, 27.3 µM with COLO 205 colon and 39.9 µM in the assay on SF-268 CNS.
On to `CCC1=NC(C(F)(F)F)(C(F)(F)F)N=C(/N=C(/N)N(C)C(C(C)C)P(=O)(OC(C)C)OC(C)C)O1` (stereo not given), for which the TGI in the assay with MDA-MB-231 breast, in the assay on SNB-75 CNS, with SK-MEL-2 melanoma, with ACHN renal, with IGROV1 ovarian and with SK-MEL-5 melanoma was above 100 µM in each case. In addition, the TGI in the assay with BT-549 breast, in the assay on SNB-19 CNS, with COLO 205 colon and in the assay with SF-268 CNS was above 100 µM in each case.
As to `C[C@]12CC/C(=N\OCCN3CCCCC3)C=C1CCC1C2CC[C@@]2(C)C1CC[C@]2(C)O` (stereo not given in full), the TGI came to 28.2 µM with MDA-MB-231 breast; 24.8 µM in the assay with SNB-75 CNS; 28.8 µM with SK-MEL-2 melanoma; 39.6 µM in the assay with ACHN renal; 35.5 µM with IGROV1 ovarian; 32.4 µM in the assay on SK-MEL-5 melanoma. The TGI with BT-549 breast was found to be 33.5 µM; in the assay on SNB-19 CNS it was 30 µM; with COLO 205 colon it was 20.9 µM; in the assay on SF-268 CNS, 31 µM.
Regarding `CC(NC(NC(C)C12CC3CC(CC(C3)C1)C2)=C(C(Cl)=C(Cl)Cl)[N+](=O)[O-])C12CC3CC(CC(C3)C1)C2` (stereo not given), the TGI is 16 µM in the assay on MDA-MB-231 breast; above 100 µM in the assay on SNB-75 CNS; above 67.6 µM in the assay on SK-MEL-2 melanoma; above 100 µM in the assay on ACHN renal; 30.1 µM in the assay with IGROV1 ovarian; 36.3 µM in the assay on SK-MEL-5 melanoma. In addition, the TGI in the assay on BT-549 breast is above 91.6 µM; with SNB-19 CNS, above 100 µM; with COLO 205 colon, 22.6 µM; in the assay with SF-268 CNS, above 59.5 µM.
Turning to `COc1ccc2c(CCNS(=O)(=O)c3ccccc3)c(C(C)=O)[nH]c2c1`, the TGI in the assay on MDA-MB-231 breast was above 100 µM; in the assay on SNB-75 CNS, above 100 µM; in the assay on SK-MEL-2 melanoma it was above 100 µM; in the assay on ACHN renal it was above 100 µM; in the assay on IGROV1 ovarian, above 100 µM; in the assay on SK-MEL-5 melanoma it was above 68.1 µM. The TGI with BT-549 breast, with SNB-19 CNS, with COLO 205 colon and in the assay on SF-268 CNS was above 100 µM throughout.
For `C=C1CC(COc2ccc3c(C)cc(=O)oc3c2)(c2ccccc2)OC1=O` (stereo not given), the TGI with MDA-MB-231 breast was 9.07 µM; in the assay with SNB-75 CNS, 19.2 µM; with SK-MEL-2 melanoma, 3.65 µM; in the assay with ACHN renal, 7.3 µM; with IGROV1 ovarian, 3.57 µM; in the assay on SK-MEL-5 melanoma it was 5.49 µM. Also, the TGI in the assay with BT-549 breast came out at 3.18 µM; in the assay on SNB-19 CNS, 29 µM; in the assay with COLO 205 colon, 2.76 µM; with SF-268 CNS, 23.9 µM.
For the molecule `COC(=O)C1C(C(=O)OC)C1(Br)CBr` (stereo not given), the TGI with MDA-MB-231 breast is above 100 µM; in the assay with SNB-75 CNS, above 100 µM; in the assay on SK-MEL-2 melanoma it was above 100 µM; in the assay on ACHN renal it was 61.8 µM; with IGROV1 ovarian, above 100 µM; in the assay with SK-MEL-5 melanoma, above 100 µM. Moreover, the TGI in the assay with BT-549 breast was 94.3 µM; in the assay with SNB-19 CNS it was above 100 µM; with COLO 205 colon, 41 µM; in the assay on SF-268 CNS, above 100 µM.
As to `CCN(CC)CCNc1ccc(C)c2sc3ccccc3c(=O)c12`, the TGI in the assay with MDA-MB-231 breast was 7.96 µM; with SNB-75 CNS, 7.68 µM; in the assay on SK-MEL-2 melanoma, 10.3 µM; in the assay on ACHN renal it was 11.5 µM; in the assay with IGROV1 ovarian, 13.5 µM; in the assay on SK-MEL-5 melanoma, 5.4 µM. Also, the TGI in the assay with BT-549 breast amounted to 19.4 µM; in the assay with SNB-19 CNS, 8.85 µM; with COLO 205 colon, 4.23 µM; with SF-268 CNS, 20.4 µM.
